# Columns and labels:
# [1] = test system: A549, PANC-1, Becap37, MG63, Huh7, RKO, Hela, CaES-17, CNE, Hep-2, PC-3 and SK-OV-3; test: Anti-human solid tumor effect, summary over cell lines; format: cell-based; details: result in words, summary of Table 2
# Method: Human solid tumor cell lines: Hep-2 ([…]), A549 (human lung cancer), CaES-17 (esophageal cancer cell), PC-3 (prostate cancer), CNE (nasopharyngeal carcinoma cell), and SK-OV-3 (ovarian cancer cell), all of which are purchased from China Center For Type Culture Collection; RKO (human colon adenocarcinoma cell), MGC 803 (human gastric cancer cell), MG63 (osteosarcoma) and U87 MG (malignant glioma cell), all of which are purchased from Fuxiang Bio-tech Co. Ltd., Shanghai, China; PANC-1 (pancreatic cancer), Huh7 (human liver cancer cell), Becap37 (human breast cancer cell), and Hela (human cervical cancer cell), all of which are donated by Cancer Research Institute of Zhejiang University, China.
# Obtaining 4000 well-growing human solid tumor cells and inoculating them into wells of a 96-well cell culture plate. The culture medium is DMEM High Glucose cell culture medium containing 10% fetal bovine serum. The plate is placed in a carbon dioxide cell incubator (5% CO2) at 37° C. and incubating for 24 hours. After adding the homoharringtonine derivatives of different concentration and mixing uniformly, the plate is placed in a carbon dioxide cell incubator (5% CO2) at 37° C. and incubating for 72 hours. Then the viable cell concentration is determined by the MTT method and the cell viability (%) after drug treatment is calculated. In this experiment, the cell viability of control group (not treated with any compound) is set as 100%.
# [2] = test system: K562/adr, NB4, Kasumi-1 and H9; test: Anti-leukemia activity, summary over cell lines; format: cell-based, human; details: result in words, summary of Table 1
# Description: Leukemia cell lines: K562/adr (drug-resistant, chronic myeloid leukemia, CML), NB4 (acute promyelocytic leukemia, AML), Kasumi-1 (acute myeloid leukemia M2 type, AML-M2), Jurkat (acute lymphoblastic leukemia, ALL), all of which are donated by Cancer Research Institute of Zhejiang University, China; and H9 (acute lymphoblastic leukemia, ALL), which is purchased from China Center for Type Culture Collection.
# Obtaining 6000 well-growing leukemia cells and inoculating them into wells of a 96-well cell culture plate. The culture medium is the 1640 cell culture medium containing 10% fetal bovine serum. After adding the homoharringtonine derivatives of different concentrations and mixing uniformly, placing the plate in a carbon dioxide cell incubator (5% CO2) at 37° C. and incubating for 72 hours. Then the viable cell concentration is determined by the MTT method. In this experiment, the cell viability in control group (not treated with any compound) is set as 100%.
# [3] = test system: CNE (nasopharyngeal carcinoma cell); test: MTT solid tumor cell growth inhibition, 72 h; format: cell-based, human; details: Homo sapiens; for IC50: read-out: IC50; for IC90: read-out: IC90
# In short: (§1)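 Cells seeded at 4000 per well in DMEM high glucose with 10% FBS were grown 24 h at 37° C, 5% CO2, then exposed to homoharringtonine derivatives at various concentrations for 72 h. Viable cells were measured by MTT, and viability (%) was expressed relative to untreated controls set at 100%.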
# [4] = test system: CaES-17 (esophageal cancer cell); test: MTT solid tumor cell growth inhibition, 72 h; format: cell-based, human; details: Homo sapiens, CaEs17, CaES-17, 72 h; for IC50: read-out: IC50; for IC90: read-out: IC90
# In short: as §1
# [5] = test system: PANC-1 (pancreatic cancer); test: MTT solid tumor cell growth inhibition, 72 h; format: cell-based, human; details: Homo sapiens, PANC-1, 72 h; for IC50: read-out: IC50; for IC90: read-out: IC90
# In short: as §1
# [6] = test system: SK-OV-3 (ovarian cancer cell); test: MTT solid tumor cell growth inhibition, 72 h; format: cell-based, human; details: Homo sapiens, SK-OV-3, 72 h; for IC50: read-out: IC50; for IC90: read-out: IC90
# In short: as §1
# PC-3 (prostate cancer) = test: MTT solid tumor cell growth inhibition, 72 h; format: cell-based, human; details: Homo sapiens, PC-3, 72 h; for IC50: read-out: IC50; for IC90: read-out: IC90
# In short: as §1
# MG63 (osteosarcoma) = test: MTT solid tumor cell growth inhibition, 72 h; format: cell-based, human; details: Homo sapiens, MG 63, 72 h; for IC50: read-out: IC50; for IC90: read-out: IC90
# In short: as §1
# [7] = test system: U87 MG (malignant glioma cell); test: MTT solid tumor cell growth inhibition, 72 h; format: cell-based, human; details: Homo sapiens, U-87 MG; for IC50: read-out: IC50; for IC90: read-out: IC90
# In short: as §1
# [8] = test system: RPMI8226 (multiple myeloma); test: MTT multiple myeloma cell growth inhibition, 72 h; format: cell-based, human; details: for IC50 / IC90: Homo sapiens, RPMI-8226, RPMI8226, 72 h; for IC50: read-out: IC50; for IC90: read-out: IC90; for anti-RPMI8226 (multiple myeloma) effect: result in words, summary of Table 2
# In short: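 Viability determined by MTT after 72 h of compound exposure at 37° C under 5% CO2. Myeloma RPMI8226 cells were seeded at 6000 per well in 1640 medium containing 10% fetal bovine serum.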
# [9] = test system: Hela (human cervical cancer cell); test: MTT solid tumor cell growth inhibition, 72 h; format: cell-based; details: Homo sapiens, HeLa; for IC50: read-out: IC50; for IC90: read-out: IC90
# In short: as §1
# [10] = test system: Huh7 (human liver cancer cell); test: MTT solid tumor cell growth inhibition, 72 h; format: cell-based; details: Homo sapiens, Huh-7, Huh7, 72 h; for IC50: read-out: IC50; for IC90: read-out: IC90
# In short: as §1
# [11] = test system: MGC 803 (human gastric cancer cell); test: MTT solid tumor cell growth inhibition, 72 h; format: cell-based; details: Homo sapiens, MGC 803, 72 h; for IC50: read-out: IC50; for IC90: read-out: IC90
# In short: as §1
# A549 (human lung cancer) = test: MTT solid tumor cell growth inhibition, 72 h; format: cell-based; details: Homo sapiens, A549, 72 h; for IC50: read-out: IC50; for IC90: read-out: IC90
# In short: as §1
# [12] = test system: Hep-2 (human hepatocellular carcinoma); test: MTT solid tumor cell growth inhibition, 72 h; format: cell-based; details: Homo sapiens, HEp-2, Hep2, 72 h; for IC50: read-out: IC50; for IC90: read-out: IC90
# In short: as §1
# [13] = test system: Becap37 (human breast cancer cell); test: MTT solid tumor cell growth inhibition, 72 h; format: cell-based; details: Homo sapiens, Becap37, 72 h; for IC50: read-out: IC50; for IC90: read-out: IC90
# In short: as §1
# [14] = test system: RKO (human colon adenocarcinoma cell); test: MTT solid tumor cell growth inhibition, 72 h; format: cell-based; details: Homo sapiens; for IC50: read-out: IC50; for IC90: read-out: IC90
# In short: as §1
# [15] = test system: Kasumi-1 (acute myeloid leukemia M2 type, AML-M2); test: MTT leukemia cell growth inhibition, 72 h; format: cell-based, human; details: Homo sapiens, Kasumi-1, 72 h; for IC50: read-out: IC50; for IC90: read-out: IC90
# In short: (§2)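 Cells were seeded at 6000 per well in RPMI-1640 with 10% FBS and exposed to homoharringtonine derivatives at various concentrations for 72 h at 37°C, 5% CO2. Viable cells were measured by MTT. Untreated controls were set as 100% viability.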
# [16] = test system: K562/adr (drug-resistant, chronic myeloid leukemia, CML); test: MTT leukemia cell growth inhibition, 72 h; format: cell-based, human; details: Homo sapiens, K562/Adr; for IC50: read-out: IC50; for IC90: read-out: IC90
# In short: as §2
# [17] = test system: H9 (acute lymphoblastic leukemia, ALL); test: MTT leukemia cell growth inhibition, 72 h; format: cell-based, human; details: Homo sapiens, H9, 72 h; for IC50: read-out: IC50; for IC90: read-out: IC90
# In short: as §2
# [18] = test system: NB4 (acute promyelocytic leukemia, AML); test: MTT leukemia cell growth inhibition, 72 h; format: cell-based, human; details: Homo sapiens, NB4, 72 h; for IC50: read-out: IC50; for IC90: read-out: IC90
# In short: as §2
# [19] = test system: Jurkat (acute lymphoblastic leukemia, ALL); test: MTT leukemia cell growth inhibition, 72 h; format: cell-based, human; details: Homo sapiens; for IC50: read-out: IC50; for IC90: read-out: IC90
# In short: as §2
structure (smiles),measurement,setting,value
"COC1=C[C@]23CCCN2CCc2cc4c(cc2[C@@H]3[C@@H]1OC(=O)[C@@](O)(CCCC(C)(C)O)CC(=O)NCc1ccc(C)o1)OCO4 [BS-HH-054, O-3-[(2R)-2,6-dihydroxy-2-(2′-(5-methyl)furan-2-methylamino-2′-oxoethyl)-6-methylheptanoyl]cephalotaxine]","anti-A549, anti-PANC-1, anti-Becap37, anti-MG63, anti-Huh7, anti-RKO, anti-Hela, anti-CaES-17, anti-CNE, anti-Hep-2, anti-PC-3 and anti-SK-OV-3 effect",[1],strong
same,"anti-K562/adr, anti-NB4, anti-Kasumi-1 and anti-H9 activity",[2],strong
same,IC50,[3],0.15 µg/mL
same,IC90,[3],16 µg/mL
same,IC50,[4],1.37 µg/mL
same,IC90,[4],> 16 µg/mL
same,IC50,[5],0.15 µg/mL
same,IC90,[5],> 16 µg/mL
same,IC50,[6],0.47 µg/mL
same,IC90,[6],> 16 µg/mL
same,IC50,PC-3 (prostate cancer),0.46 µg/mL
same,IC90,PC-3 (prostate cancer),> 16 µg/mL
same,IC50,MG63 (osteosarcoma),0.12 µg/mL
same,IC90,MG63 (osteosarcoma),8.07 µg/mL
same,IC50,[7],0.32 µg/mL
same,IC90,[7],16 µg/mL
same,IC50,[8],0.092 µg/mL
same,IC90,[8],0.24 µg/mL
same,anti-RPMI8226 (multiple myeloma) effect,[8],strong
same,IC50,[9],0.3 µg/mL
same,IC90,[9],> 16 µg/mL
same,IC50,[10],0.12 µg/mL
same,IC90,[10],16 µg/mL
same,IC50,[11],0.15 µg/mL
same,IC90,[11],6 µg/mL
same,IC50,A549 (human lung cancer),0.72 µg/mL
same,IC90,A549 (human lung cancer),> 16 µg/mL
same,IC50,[12],0.23 µg/mL
same,IC90,[12],> 16 µg/mL
same,IC50,[13],0.14 µg/mL
same,IC90,[13],16 µg/mL
same,IC50,[14],2.75 µg/mL
same,IC90,[14],6.97 µg/mL
same,IC50,[15],0.053 µg/mL
same,IC90,[15],0.19 µg/mL
same,IC50,[16],0.66 µg/mL
same,IC90,[16],4.4 µg/mL
same,IC50,[17],0.17 µg/mL
same,IC90,[17],0.43 µg/mL
same,IC50,[18],0.09 µg/mL
same,IC90,[18],0.2 µg/mL
same,IC50,[19],0.11 µg/mL
same,IC90,[19],16 µg/mL
"COC1=C[C@]23CCCN2CCc2cc4c(cc2[C@@H]3[C@@H]1OC(=O)[C@@](O)(CCCC(C)(C)O)CC(=O)NC1CCCCC1)OCO4 [BS-HH-042, O-3-[(2R)-2,6-dihydroxy-2-(2′-cyclohexaneamino-2′-oxoethyl)-6-methylheptanoyl]cephalotaxine]","anti-A549, anti-PANC-1, anti-Becap37, anti-MG63, anti-Huh7, anti-RKO, anti-Hela, anti-CaES-17, anti-CNE, anti-Hep-2, anti-PC-3 and anti-SK-OV-3 effect",[1],strong
same,"anti-K562/adr, anti-NB4, anti-Kasumi-1 and anti-H9 activity",[2],strong
same,IC50,[3],0.13 µg/mL
same,IC90,[3],> 16 µg/mL
same,IC50,[4],0.29 µg/mL
same,IC90,[4],16 µg/mL
same,IC50,[5],0.13 µg/mL
same,IC90,[5],> 16 µg/mL
same,IC50,[6],0.21 µg/mL
same,IC90,[6],> 16 µg/mL
same,IC50,PC-3 (prostate cancer),0.31 µg/mL
same,IC90,PC-3 (prostate cancer),> 16 µg/mL
same,IC50,MG63 (osteosarcoma),0.12 µg/mL
same,IC90,MG63 (osteosarcoma),16 µg/mL
same,IC50,[7],0.12 µg/mL
same,IC90,[7],13 µg/mL
same,IC50,[8],0.042 µg/mL
same,IC90,[8],0.24 µg/mL
same,anti-RPMI8226 (multiple myeloma) effect,[8],strong
same,IC50,[9],0.45 µg/mL
same,IC90,[9],> 16 µg/mL
same,IC50,[10],0.044 µg/mL
same,IC90,[10],> 16 µg/mL
same,IC50,[11],0.096 µg/mL
same,IC90,[11],0.25 µg/mL
same,IC50,A549 (human lung cancer),0.45 µg/mL
same,IC90,A549 (human lung cancer),> 16 µg/mL
same,IC50,[12],0.97 µg/mL
same,IC90,[12],> 16 µg/mL
same,IC50,[13],0.17 µg/mL
same,IC90,[13],> 16 µg/mL
same,IC50,[14],0.029 µg/mL
same,IC90,[14],0.23 µg/mL
same,IC50,[15],0.048 µg/mL
same,IC90,[15],0.21 µg/mL
same,IC50,[16],3.2 µg/mL
same,IC90,[16],16 µg/mL
same,IC50,[17],0.04 µg/mL
same,IC90,[17],0.1 µg/mL
same,IC50,[18],0.06 µg/mL
same,IC90,[18],0.13 µg/mL
same,IC50,[19],0.037 µg/mL
same,IC90,[19],16 µg/mL
